This is an account of results in PubChem BioAssay (NCI).

Common to all, as to assay: NCI anticancer screen, dose series, 48 h
In test [1] the test system is SN12C renal.
The subject of test [2] is U251 CNS.
Test [3] deals with OVCAR-3 ovarian.
Test [4] deals with MCF7 breast.
Test [5] relates to MDA-MB-435.
Test [6] deals with PC-3 prostate.
The test system of test [7] is SR leukemia.
Test [8] deals with CCRF-CEM leukemia.
Test [9] relates to HT29 colon.
Test [10] deals with TK-10 renal.
In test [11] the test system is CAKI-1 renal.
For test [12], the system named is SNB-19 CNS.
The subject of test [13] is K-562 leukemia.
Test [14] relates to HOP-62 NSCLC.
In test [15] the test system is EKVX NSCLC.
For test [16], the system named is SW-620 colon.
Test [17] deals with MDA-N.
Test [18] has as its system SF-539 CNS.
For test [19], the system named is OVCAR-5 ovarian.

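Interpolation was linear, between the two tested concentrations surrounding the appropriate level; five concentrations were tested over 48 hours in 96-well plates. The concentration for full growth arrest is given as TGI.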 Where a SMILES comes first, the peptide text is derived from it. The star is where a group is joined. Boc = CC(C)(C)OC(=O)*

Turning to `CC(NC(=O)C(NC(=O)OC(C)(C)C)C(C)C)C(=O)N1CCCC1C(=O)NCC(=O)NC(C(=O)NCC(=O)O)C(C)C` (configuration not stated) (Boc-VAPGVG-OH; configuration not given here), the TGI in [1], in [2], in [3], in [4], in test [5] and in test [6] was more than 100 µM each time. Further, the TGI in test [7], in [8], in test [9], in test [10], in test [11] and in test [12] was more than 100 µM throughout. The TGI in test [13], in test [14], in test [15], in [16], in [17] and in test [18] was more than 100 µM each time. The same compound gave a TGI in test [19] of more than 100 µM.
With `COc1cc2cc(C(=O)N3CC(CCl)c4c3cc([N+](=O)[O-])c3ccccc43)[nH]c2c(OC)c1OC` (configuration not stated), the TGI in test [1], in test [2], in [3], in test [4], in [5] and in [6] was more than 100 µM each time. In addition, the TGI is 19.1 µM in test [7]; more than 100 µM in test [8]; more than 100 µM in test [9]; more than 100 µM in [10]; more than 100 µM in [11]; more than 100 µM in test [12]. Further, the TGI in [13], in test [14], in [15], in [16], in [17] and in [18] was more than 100 µM in each case. In test [19], this compound displayed a TGI of more than 100 µM.
On to `C=CCc1cc(-c2cc(CC=C)c(O)c(CN(CCCl)CCCl)c2)cc(CN(CCCl)CCCl)c1O`, for which the TGI in [1] stood at 27.7 µM; in test [2], 24.8 µM; in [3] it was 36.2 µM; in test [4] it was 42.7 µM; in test [5], 31.1 µM; in test [6], 25.8 µM. Also, the TGI in [7] was more than 100 µM; in test [8] it was more than 100 µM; in [9], 33.3 µM; in test [10] it was 38.8 µM; in [11] it was 34.6 µM; in test [12] it was 51.8 µM. For the same compound, the TGI in test [13] was more than 100 µM; in test [14], 43.5 µM; in [15] it was 22.5 µM; in test [16], 27.7 µM; in [17], 35 µM; in test [18], 36.3 µM. The same compound gave a TGI in [19] of 35.4 µM.
